In patent US10047051B2, “Substituted pyridines and method of use” (AbbVie S.á{acute over (.)}r.l., priority 2015, dated 2018):

What was measured:
CFTR ΔF508 mutant = biological target: T1, CFTR ΔF508 mutant (Homo sapiens, UniProt P13569, DEL508-508); experiment: YFP-halide influx assay for the CFTR-ΔF508 mutation (CFBE41o- cells); format: cell-based; settings: forskolin 10.67 μM; for EC50: from (1−F/F0) vs concentration plot
T1 construct: expressed in transfected cells; host or cells: CFBE41o- cells, adenoviral transduction
Summary of the method: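 EC50 derived from plotting 1−F/F0 (fluorescence 36 s after iodide injection over pre-injection value) against compound concentration. Cells: CFBE41o- transduced with ΔF508-CFTR and YFP quench reporter, corrected 24 h at 27° C or by a CFTR modulator at 37° C.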

CFTR G551D mutant = biological target: T2, CFTR G551D mutant (Homo sapiens, UniProt P13569, G551D); experiment: YFP-halide influx assay for the CFTR-G551D mutation (HEK293 cells); format: cell-based; settings: forskolin 10.67 μM
T2 construct: expressed in transfected cells; host or cells: HEK293 cells, reverse transfection with plasmids
Summary of the method: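 Channel opening read as I⁻-driven quenching of a YFP H148Q/I152L/F47L reporter over 7 s post-injection, expressed as 1−F/F0 and fitted against concentration for EC50. Cells were HEK293 co-transfected at seeding with G551D CFTR plus reporter, then grown 24 h at 37 °C, 5% CO2.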

T1 sequence (P13569 with tags, fused parts or gaps DEL508-508): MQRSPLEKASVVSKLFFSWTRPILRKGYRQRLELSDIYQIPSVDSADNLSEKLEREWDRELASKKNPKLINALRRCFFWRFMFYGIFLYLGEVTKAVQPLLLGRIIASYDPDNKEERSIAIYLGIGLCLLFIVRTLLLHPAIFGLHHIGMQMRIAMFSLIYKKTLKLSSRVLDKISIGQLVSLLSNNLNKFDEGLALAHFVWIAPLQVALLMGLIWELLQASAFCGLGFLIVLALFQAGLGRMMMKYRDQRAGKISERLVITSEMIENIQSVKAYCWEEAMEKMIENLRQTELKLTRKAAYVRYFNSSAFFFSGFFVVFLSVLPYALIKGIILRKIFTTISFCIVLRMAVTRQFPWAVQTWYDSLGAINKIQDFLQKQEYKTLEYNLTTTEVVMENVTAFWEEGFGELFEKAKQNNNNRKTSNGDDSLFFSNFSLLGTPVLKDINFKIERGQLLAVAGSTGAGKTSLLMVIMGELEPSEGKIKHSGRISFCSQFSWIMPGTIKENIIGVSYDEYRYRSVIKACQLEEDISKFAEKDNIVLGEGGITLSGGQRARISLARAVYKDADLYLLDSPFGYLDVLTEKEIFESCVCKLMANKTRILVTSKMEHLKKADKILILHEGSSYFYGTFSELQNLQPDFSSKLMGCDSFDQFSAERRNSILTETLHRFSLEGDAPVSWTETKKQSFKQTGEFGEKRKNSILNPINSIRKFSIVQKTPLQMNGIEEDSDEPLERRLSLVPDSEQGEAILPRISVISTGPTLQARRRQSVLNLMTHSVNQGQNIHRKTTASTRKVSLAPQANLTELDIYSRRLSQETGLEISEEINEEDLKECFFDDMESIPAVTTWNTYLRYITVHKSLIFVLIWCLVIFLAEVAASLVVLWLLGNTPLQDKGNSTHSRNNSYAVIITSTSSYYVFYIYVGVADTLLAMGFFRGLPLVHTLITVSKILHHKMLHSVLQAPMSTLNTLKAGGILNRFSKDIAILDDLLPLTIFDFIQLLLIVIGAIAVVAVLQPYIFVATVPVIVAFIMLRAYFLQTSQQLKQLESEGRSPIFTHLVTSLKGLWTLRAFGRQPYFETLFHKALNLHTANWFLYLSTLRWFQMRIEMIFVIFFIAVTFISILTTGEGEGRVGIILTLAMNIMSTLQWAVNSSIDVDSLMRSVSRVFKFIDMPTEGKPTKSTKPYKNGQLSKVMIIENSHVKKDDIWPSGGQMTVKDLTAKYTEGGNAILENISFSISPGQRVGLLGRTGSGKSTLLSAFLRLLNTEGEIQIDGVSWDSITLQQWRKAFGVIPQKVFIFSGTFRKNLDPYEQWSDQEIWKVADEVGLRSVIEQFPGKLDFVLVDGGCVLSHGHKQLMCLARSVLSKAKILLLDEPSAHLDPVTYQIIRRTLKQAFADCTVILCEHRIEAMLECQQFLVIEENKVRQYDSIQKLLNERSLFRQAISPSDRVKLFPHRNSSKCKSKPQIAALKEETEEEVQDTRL
T2 sequence (P13569 whole entry G551D): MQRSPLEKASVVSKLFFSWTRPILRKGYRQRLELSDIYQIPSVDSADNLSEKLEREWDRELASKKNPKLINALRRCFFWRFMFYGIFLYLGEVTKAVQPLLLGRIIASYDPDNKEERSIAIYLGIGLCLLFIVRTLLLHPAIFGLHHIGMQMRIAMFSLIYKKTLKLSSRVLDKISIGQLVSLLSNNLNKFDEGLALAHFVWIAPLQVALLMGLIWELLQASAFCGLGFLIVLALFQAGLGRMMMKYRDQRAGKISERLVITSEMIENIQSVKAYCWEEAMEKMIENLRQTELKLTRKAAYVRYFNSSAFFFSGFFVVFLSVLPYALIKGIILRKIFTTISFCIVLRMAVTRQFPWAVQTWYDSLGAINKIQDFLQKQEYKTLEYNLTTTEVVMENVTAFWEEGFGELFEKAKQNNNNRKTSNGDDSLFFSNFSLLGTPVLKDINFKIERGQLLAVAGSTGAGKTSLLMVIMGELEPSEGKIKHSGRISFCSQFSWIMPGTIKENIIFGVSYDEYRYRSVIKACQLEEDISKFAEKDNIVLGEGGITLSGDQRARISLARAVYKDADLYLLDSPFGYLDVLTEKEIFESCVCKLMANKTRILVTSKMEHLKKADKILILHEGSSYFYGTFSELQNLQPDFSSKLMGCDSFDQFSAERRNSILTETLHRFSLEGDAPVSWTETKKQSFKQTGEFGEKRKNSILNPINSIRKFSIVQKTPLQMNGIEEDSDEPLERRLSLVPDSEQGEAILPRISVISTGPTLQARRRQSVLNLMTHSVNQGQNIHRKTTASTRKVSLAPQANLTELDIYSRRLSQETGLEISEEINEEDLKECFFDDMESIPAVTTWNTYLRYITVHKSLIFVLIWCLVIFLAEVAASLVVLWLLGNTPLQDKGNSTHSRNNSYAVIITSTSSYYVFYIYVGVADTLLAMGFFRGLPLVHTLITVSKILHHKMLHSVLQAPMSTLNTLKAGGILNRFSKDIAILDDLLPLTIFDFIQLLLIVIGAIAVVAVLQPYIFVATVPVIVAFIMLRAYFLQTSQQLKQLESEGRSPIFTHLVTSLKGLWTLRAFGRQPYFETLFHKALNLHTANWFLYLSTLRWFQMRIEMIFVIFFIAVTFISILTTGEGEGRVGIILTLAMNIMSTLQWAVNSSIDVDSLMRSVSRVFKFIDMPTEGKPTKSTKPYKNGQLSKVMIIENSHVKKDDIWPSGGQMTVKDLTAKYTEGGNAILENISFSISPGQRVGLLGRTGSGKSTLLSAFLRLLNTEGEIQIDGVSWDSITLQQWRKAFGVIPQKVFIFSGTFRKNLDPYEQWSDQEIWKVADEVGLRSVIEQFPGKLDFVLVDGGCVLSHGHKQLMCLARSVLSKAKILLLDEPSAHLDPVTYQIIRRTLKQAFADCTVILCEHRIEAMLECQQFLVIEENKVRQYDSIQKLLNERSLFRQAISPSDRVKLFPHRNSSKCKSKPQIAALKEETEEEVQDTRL

Row | SMILES | % Activation (CFTR ΔF508 mutant) [%] | EC50 (CFTR ΔF508 mutant) [nM] | % Activation (CFTR G551D mutant) [%] | EC50 (CFTR G551D mutant) [nM]
1 | CC(C)COCC(O)CNC(=O)c1ncc(S(=O)(=O)c2ccc(OC(F)(F)F)cc2F)cc1N (stereo not shown) [Compound 171, 3-amino-5-{[2-fluoro-4-(trifluoromethoxy)phenyl]sulfonyl}-N-[2-hydroxy-3-(2-methylpropoxy)propyl]pyridine-2-carboxamide] | 103.7 | 8.7 | 86.4 | 991
2 | Nc1cc(S(=O)(=O)c2ccc(OC(F)(F)F)cc2)cnc1C(=O)NCC(O)C1CCOC1 (stereo not shown) [Compound 73, 3-amino-N-[2-hydroxy-2-(tetrahydrofuran-3-yl)ethyl]-5-{[4-(trifluoromethoxy)phenyl]sulfonyl}pyridine-2-carboxamide] | 102.0 | 81.4 | 61.0 | > 3330
3 | CC1CC(C)CN(S(=O)(=O)c2cnc(C(=O)NCC(O)C(F)(F)F)c(N)c2)C1 (stereo not shown) [Compound 185, 3-amino-5-[(3,5-dimethylpiperidin-1-yl)sulfonyl]-N-(3,3,3-trifluoro-2-hydroxypropyl)pyridine-2-carboxamide] | 111.3 | 2.9 | 69.4 | 1120
4 | Nc1cc(S(=O)(=O)c2ccc(C(F)(F)F)cc2F)cnc1C(=O)NC[C@@H]1CCOC1 [Compound 114, 3-amino-5-{[2-fluoro-4-(trifluoromethyl)phenyl]sulfonyl}-N-[(3S)-tetrahydrofuran-3-ylmethyl]pyridine-2-carboxamide] | 109.3 | 19.1 | 37.9 | > 10000
5 | COCCC(C)(O)CNC(=O)c1ncc(S(=O)(=O)c2ccc(C(F)(F)F)cc2)cc1N (stereo not shown) [Compound 167, 3-amino-N-(2-hydroxy-4-methoxy-2-methylbutyl)-5-{[4-(trifluoromethyl)phenyl]sulfonyl}pyridine-2-carboxamide] | 98.3 | 41.7 | 71.5 | 1550
6 | CC1CCCN(S(=O)(=O)c2cnc(C(=O)NCC(O)C(F)(F)F)c(N)c2)C1 (stereo not shown) [Compound 182, 3-amino-5-[(3-methylpiperidin-1-yl)sulfonyl]-N-(3,3,3-trifluoro-2-hydroxypropyl)pyridine-2-carboxamide] | 112.7 | 4.7 | 51.3 | 645
7 | Nc1cc(S(=O)(=O)c2ccc(C(F)(F)F)cc2F)cnc1C(=O)NC[C@@H](O)C(F)(F)F [Compound 107, 3-amino-5-{[2-fluoro-4-(trifluoromethyl)phenyl]sulfonyl}-N-[(2R)-3,3,3-trifluoro-2-hydroxypropyl]pyridine-2-carboxamide] | 103.0 | 1.5 | 81.7 | 164
8 | CC1(C)CN(C(=O)c2ncc(S(=O)(=O)c3ccc(C(F)(F)F)cc3)cc2N)C1 [Compound 110, (3-amino-5-{[4-(trifluoromethyl)phenyl]sulfonyl}pyridin-2-yl)(3,3-dimethylazetidin-1-yl)methanone] | 116.0 | 33.5 | 83.6 | 1140
9 | Nc1cc(S(=O)(=O)c2ccc(OC(F)(F)F)cc2)cnc1C(=O)NCCc1ccco1 [Compound 141, 3-amino-N-[2-(furan-2-yl)ethyl]-5-{[4-(trifluoromethoxy)phenyl]sulfonyl}pyridine-2-carboxamide] | 100.6 | 109 | 60.4 | 795
10 | Nc1cc(S(=O)(=O)c2ccc(C(F)(F)F)cc2)cnc1C(=O)NC[C@@H]1CCOC1 [Compound 102, 3-amino-N-[(3S)-tetrahydrofuran-3-ylmethyl]-5-{[4-(trifluoromethyl)phenyl]sulfonyl}pyridine-2-carboxamide] | 119.0 | 28.2 | 73.6 | 1360
11 | CC1(CCNC(=O)c2ncc(S(=O)(=O)c3ccc(OC(F)(F)F)cc3)cc2N)CC1 [Compound 124, 3-amino-N-[2-(1-methylcyclopropyl)ethyl]-5-{[4-(trifluoromethoxy)phenyl]sulfonyl}pyridine-2-carboxamide] | 104.0 | 100 | 57.0 | 824
12 | CN1CC[C@H](NC(=O)c2ncc(S(=O)(=O)c3ccc(OC(F)(F)F)cc3)cc2N)C1 [Compound 207, 3-amino-N-[(3S)-1-methylpyrrolidin-3-yl]-5-{[4-(trifluoromethoxy)phenyl]sulfonyl}pyridine-2-carboxamide] | 78.0 | > 667 | 15.0 | > 10000
13 | CC(C)(O)CCNC(=O)c1ncc(S(=O)(=O)c2ccc(OC(F)(F)F)cc2)cc1N [Compound 51, 3-amino-N-(3-hydroxy-3-methylbutyl)-5-{[4-(trifluoromethoxy)phenyl]sulfonyl}pyridine-2-carboxamide] | 96.8 | 30.2 | 51.2 | 1130
14 | Nc1cc(S(=O)(=O)N2CCC(OC(F)(F)F)CC2)cnc1C(=O)NCC(O)C(F)(F)F (stereo not shown) [Compound 198, 3-amino-N-(3,3,3-trifluoro-2-hydroxypropyl)-5-{[4-(trifluoromethoxy)piperidin-1-yl]sulfonyl}pyridine-2-carboxamide] | 107.0 | 7.8 | 75.2 | 756
15 | Nc1cc(S(=O)(=O)c2ccc(C(F)(F)F)cc2F)cnc1C(=O)N1CC(C(F)(F)F)C1 [Compound 160, (3-amino-5-{[2-fluoro-4-(trifluoromethyl)phenyl]sulfonyl}pyridin-2-yl)[3-(trifluoromethyl)azetidin-1-yl]methanone] | 113.9 | 23.6 | 52.7 | 566
16 | Nc1cc(S(=O)(=O)c2ccc(OC(F)(F)F)cc2)cnc1C(=O)NCC1CCCOC1 (stereo not shown) [Compound 143, 3-amino-N-(tetrahydro-2H-pyran-3-ylmethyl)-5-{[4-(trifluoromethoxy)phenyl]sulfonyl}pyridine-2-carboxamide] | 91.4 | 136 | 80.6 | 2300
17 | Nc1cc(S(=O)(=O)N2CCC(F)(F)C2)cnc1C(=O)NCC(O)C(F)(F)F (stereo not shown) [Compound 186, 3-amino-5-[(3,3-difluoropyrrolidin-1-yl)sulfonyl]-N-(3,3,3-trifluoro-2-hydroxypropyl)pyridine-2-carboxamide] | 108.2 | 29.9 | 49.9 | > 3330

The next lines start with the values.

Row | % Activation (CFTR ΔF508 mutant) [%] | EC50 (CFTR ΔF508 mutant) [nM] | % Activation (CFTR G551D mutant) [%] | EC50 (CFTR G551D mutant) [nM] | SMILES
18 | 105.8 | 44.4 | 43.8 | 1520 | Nc1cc(S(=O)(=O)c2ccc(C(F)(F)F)cc2F)cnc1C(=O)N[C@@H]1COCC[C@@H]1O (racemic) [Compound 218, rac-3-amino-5-{[2-fluoro-4-(trifluoromethyl)phenyl]sulfonyl}-N-[(3R,4S)-4-hydroxytetrahydro-2H-pyran-3-yl]pyridine-2-carboxamide]
19 | 102.0 | 16.9 | 71.6 | 791 | COc1ccc(S(=O)(=O)c2cnc(C(=O)NCC(O)C(F)(F)F)c(N)c2)cc1 (stereo not shown) [Compound 220, 3-amino-5-[(4-methoxyphenyl)sulfonyl]-N-(3,3,3-trifluoro-2-hydroxypropyl)pyridine-2-carboxamide]
20 | 102.5 | 8.5 | 65.9 | 564 | Nc1cc(S(=O)(=O)c2ccccc2)cnc1C(=O)NCC(O)C(F)(F)F (stereo not shown) [Compound 244, 3-amino-5-(phenylsulfonyl)-N-(3,3,3-trifluoro-2-hydroxypropyl)pyridine-2-carboxamide]
21 | 72.4 | 263 | 28.5 | > 10000 | Nc1cc(S(=O)(=O)c2ccc(C(F)(F)F)cc2)cnc1C(=O)NC1(CO)CC1 [Compound 292, 3-amino-N-[1-(hydroxymethyl)cyclopropyl]-5-{[4-(trifluoromethyl)phenyl]sulfonyl}pyridine-2-carboxamide]
22 | 106.7 | 30.9 | 44.2 | 2210 | CN(CCC(F)(F)F)S(=O)(=O)c1cnc(C(=O)NCC(O)C(F)(F)F)c(N)c1 (stereo not shown) [Compound 225, 3-amino-5-[methyl(3,3,3-trifluoropropyl)sulfamoyl]-N-(3,3,3-trifluoro-2-hydroxypropyl)pyridine-2-carboxamide]
23 | 59.3 | > 667 | 0.9 | > 10000 | C[C@H](O)CNC(=O)c1ncc(S(=O)(=O)NCc2ccc(F)cc2)cc1N [Compound 267, 3-amino-5-[(4-fluorobenzyl)sulfamoyl]-N-[(2S)-2-hydroxypropyl]pyridine-2-carboxamide]
24 | 106.5 | 9.9 | 69.5 | 546 | CC(C)Oc1ccc(S(=O)(=O)c2cnc(C(=O)NCC(O)C(F)(F)F)c(N)c2)cc1 (stereo not shown) [Compound 237, 3-amino-5-{[4-(propan-2-yloxy)phenyl]sulfonyl}-N-(3,3,3-trifluoro-2-hydroxypropyl)pyridine-2-carboxamide]
25 | 44.6 | > 667 | 5.8 | > 10000 | CN1CC(NC(=O)c2ncc(S(=O)(=O)c3ccc(OC(F)(F)F)cc3)cc2N)C1 [Compound 210, 3-amino-N-(1-methylazetidin-3-yl)-5-{[4-(trifluoromethoxy)phenyl]sulfonyl}pyridine-2-carboxamide]
